How the values were obtained:
[1] = biological target: T1, recombinant human ACC1 (acetyl-CoA carboxylase 1) (Homo sapiens, UniProt Q13085); test: Human ACC1 enzyme assay (HTRF ADP detection); format: biochemical; conditions: 50 μM ATP, 20 μM acetyl-CoA, 15 min pre-incubation, 20 min at 22° C.; read-out: ACC 1 IC50;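 further: ADP by-product quantified by competitive HTRF immunoassay with europium cryptate anti-ADP antibody and d2-labelled ADP, read after 1 h binding at 22 °C, enzyme near 2.5 ng/µl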
T1 construct: NM_198834, amino acids 39—end; FLAG (C); made in house; host or cells: baculovirus-transfected insect cells (Hi5)
Experimental: The basic principle of the assay is the measurement of adenosine diphosphate (ADP), which is formed as a by-product, by means of an HTRF®-based competitive immunoassay (HTRF=Homogeneous Time Resolved Fluorescence).
(§1) The amount of complex of d2-labelled ADP and europium cryptate-labelled anti-ADP antibody was then determined by measuring the resonance energy transfer of europium cryptate to d2.

[2] = biological target: T2, ACC2 (acetyl-CoA carboxylase 2) (Homo sapiens, UniProt O00763); test: Human ACC2 enzyme assay (HTRF ADP detection); format: biochemical; conditions: 20 μM acetyl-CoA, 15 min pre-incubation, 20 min at 22° C.; read-out: ACC 2 IC50
T2 construct: catalogue no; 50201, amino acids 39—end, expressed in baculovirus-transfected Sf9 insect cells; His (C); purchased BPS Bioscience (San Diego, Calif.) 50201; host or cells: baculovirus-transfected Sf9 insect cells
T2 sequence (O00763 39-2458 limits assumed): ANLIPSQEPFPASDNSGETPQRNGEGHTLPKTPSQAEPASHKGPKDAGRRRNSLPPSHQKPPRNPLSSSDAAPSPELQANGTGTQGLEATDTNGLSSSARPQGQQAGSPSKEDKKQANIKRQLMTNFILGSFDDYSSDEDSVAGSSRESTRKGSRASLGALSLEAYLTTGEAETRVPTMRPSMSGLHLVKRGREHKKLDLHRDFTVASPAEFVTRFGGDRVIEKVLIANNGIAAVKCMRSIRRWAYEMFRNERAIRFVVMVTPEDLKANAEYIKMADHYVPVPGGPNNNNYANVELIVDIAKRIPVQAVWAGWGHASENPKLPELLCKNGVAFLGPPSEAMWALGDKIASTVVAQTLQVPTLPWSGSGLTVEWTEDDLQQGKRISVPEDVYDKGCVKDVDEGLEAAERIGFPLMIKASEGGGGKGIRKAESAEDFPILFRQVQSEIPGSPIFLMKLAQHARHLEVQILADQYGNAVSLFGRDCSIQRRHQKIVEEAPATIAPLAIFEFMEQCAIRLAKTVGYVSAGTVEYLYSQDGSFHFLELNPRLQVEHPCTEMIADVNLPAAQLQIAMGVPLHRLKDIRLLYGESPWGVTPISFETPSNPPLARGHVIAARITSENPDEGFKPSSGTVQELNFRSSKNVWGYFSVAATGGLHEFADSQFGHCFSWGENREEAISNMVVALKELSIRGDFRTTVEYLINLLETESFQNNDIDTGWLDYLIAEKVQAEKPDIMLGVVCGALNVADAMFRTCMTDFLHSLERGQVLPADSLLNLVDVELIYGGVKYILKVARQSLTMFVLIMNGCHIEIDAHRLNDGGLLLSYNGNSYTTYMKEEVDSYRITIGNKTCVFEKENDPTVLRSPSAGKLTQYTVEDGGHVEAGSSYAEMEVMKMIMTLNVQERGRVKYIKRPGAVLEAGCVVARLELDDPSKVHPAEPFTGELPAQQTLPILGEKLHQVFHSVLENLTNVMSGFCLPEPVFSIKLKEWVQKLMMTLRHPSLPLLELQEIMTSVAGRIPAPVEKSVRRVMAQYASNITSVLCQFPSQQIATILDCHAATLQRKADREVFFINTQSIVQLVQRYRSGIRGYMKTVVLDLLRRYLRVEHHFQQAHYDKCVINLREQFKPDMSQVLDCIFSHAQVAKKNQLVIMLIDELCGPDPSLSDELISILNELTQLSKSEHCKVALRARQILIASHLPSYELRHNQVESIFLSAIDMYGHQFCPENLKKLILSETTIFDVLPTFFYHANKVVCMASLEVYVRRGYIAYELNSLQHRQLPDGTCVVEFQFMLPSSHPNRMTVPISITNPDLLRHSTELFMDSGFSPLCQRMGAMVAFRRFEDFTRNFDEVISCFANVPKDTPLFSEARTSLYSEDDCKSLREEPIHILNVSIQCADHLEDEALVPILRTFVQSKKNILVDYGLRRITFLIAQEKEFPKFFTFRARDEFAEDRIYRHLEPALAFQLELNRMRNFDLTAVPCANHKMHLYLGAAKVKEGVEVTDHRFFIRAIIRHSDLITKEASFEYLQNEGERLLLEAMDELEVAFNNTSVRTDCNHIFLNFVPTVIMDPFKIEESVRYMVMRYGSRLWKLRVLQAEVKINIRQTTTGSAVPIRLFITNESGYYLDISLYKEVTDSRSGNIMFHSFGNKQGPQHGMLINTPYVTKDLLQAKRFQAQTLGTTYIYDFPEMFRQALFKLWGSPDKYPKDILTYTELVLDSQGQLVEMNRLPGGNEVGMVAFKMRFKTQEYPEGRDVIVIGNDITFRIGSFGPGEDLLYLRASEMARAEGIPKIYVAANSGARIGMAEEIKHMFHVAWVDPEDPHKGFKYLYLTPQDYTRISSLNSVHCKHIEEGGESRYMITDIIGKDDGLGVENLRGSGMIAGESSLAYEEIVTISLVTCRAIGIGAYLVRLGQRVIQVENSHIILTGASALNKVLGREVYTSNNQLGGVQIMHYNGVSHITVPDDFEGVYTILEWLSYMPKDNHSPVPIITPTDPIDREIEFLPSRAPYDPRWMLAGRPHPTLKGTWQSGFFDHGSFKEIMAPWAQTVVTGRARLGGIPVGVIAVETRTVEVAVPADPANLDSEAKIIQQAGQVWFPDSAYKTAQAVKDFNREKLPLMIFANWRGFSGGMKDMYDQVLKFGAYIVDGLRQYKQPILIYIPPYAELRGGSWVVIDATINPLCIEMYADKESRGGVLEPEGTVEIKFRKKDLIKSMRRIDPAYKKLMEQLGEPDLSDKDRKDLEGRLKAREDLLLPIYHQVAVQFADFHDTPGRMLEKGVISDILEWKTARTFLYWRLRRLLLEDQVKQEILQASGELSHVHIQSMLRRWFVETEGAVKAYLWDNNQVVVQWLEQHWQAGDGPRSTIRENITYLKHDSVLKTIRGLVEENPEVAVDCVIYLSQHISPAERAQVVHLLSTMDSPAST
Experimental: The inhibitory activity of the substances of this invention with regard to acetyl-CoA carboxylase 2 (ACC2) was measured using the ACC2 assay described in the paragraphs below. The basic principle of the assay is the measurement of adenosine diphosphate (ADP), which is formed as a by-product, by means of an HTRF®-based competitive immunoassay (HTRF=Homogeneous Time Resolved Fluorescence).
as §1

Row | Compound | IC50 [1] [nM] | IC50 [2] [nM]
1 | Cc1ccc(-c2ccc(Cl)cc2)cc1C1C(=O)N2CCOCCN2C1=O [Example 8-6, 8-(4′-chloro-4-methylbiphenyl-3-yl)tetrahydro-7H-pyrazolo[1,2-d][1,4,5]oxadiazepine-7,9(8H)-dione] | 1380 | > 20000
2 | COC1CCC2(CC1)NC(=O)C(c1cc(-c3ccc(Cl)cc3)ccc1Cl)=C2O (stereo not shown) [Example 1-11, 3-(4,4′-dichlorobiphenyl-3-yl)-4-hydroxy-8-methoxy-1-azaspiro[4.5]dec-3-en-2-one] | 240 | 1000
3 | Cc1ccc(-c2ccc(Cl)cc2)cc1C1=C(O)C2(Cc3ccccc3C2)NC1=O [Example 1-25, 4′-(4′-chloro-4-methylbiphenyl-3-yl)-3′-hydroxy-1,3-dihydrospiro[indene-2,2′-pyrrol]-5′(1′H)-one] | 495 | 3360
4 | Cc1cc(C)c(-c2ccc(Cl)cc2)cc1C1=C(O)C2(CCCCC2)SC1=O [Example 3-3, 3-(4′-chloro-4,6-dimethylbiphenyl-3-yl)-4-hydroxy-1-thiaspiro[4.5]dec-3-en-2-one] | 340 | 250
5 | Cc1cc(C)c(-c2ccc(Cl)cc2)cc1C1=C(O)C(C)OC1=O (stereo not shown) [Example 2-45, 3-(4′-chloro-4,6-dimethylbiphenyl-3-yl)-4-hydroxy-5-methylfuran-2(5H)-one] | 568 | 17000
6 | Cc1cc(C)c(-c2ccc(Cl)cc2)c(C)c1C1=C(O)C2(CCCCC2)OC1=O [Example 2-6, 3-(4′-chloro-2,4,6-trimethylbiphenyl-3-yl)-4-hydroxy-1-oxaspiro[4.5]dec-3-en-2-one] | 2150 | 139
7 | O=c1[nH]c2cc(Cl)ccc2c(O)c1-c1cc(-c2ccc(Cl)cc2)ccc1Cl [Example 9-13, 7-chloro-3-(4,4′-dichlorobiphenyl-3-yl)-4-hydroxyquinolin-2(1H)-one] | 329 | 5560
8 | Cc1ccc(-c2ccc(Cl)cc2)cc1C1=C(O)C2CSCCN2C1=O (stereo not shown) [Example 1-21, 7-(4′-chloro-4-methylbiphenyl-3-yl)-8-hydroxy-1,3,4,8a-tetrahydro-6H-pyrrolo[2,1-c][1,4]thiazin-6-one] | 533 | 15100
9 | Cc1ccc(-c2ccc(F)cc2)cc1C1=C(O)[C@]2(CC[C@@]3(CCCO3)CC2)OC1=O [Example 2-28, (5r,8s)-3-(4′-fluoro-4-methylbiphenyl-3-yl)-4-hydroxy-1,9-dioxadispiro[4.2.4.2]tetradec-3-en-2-one] | 140 | 2500
10 | Cc1ccc(-c2ccc(C(F)(F)F)cc2)cc1-c1c(O)c2ccc(Cl)cc2[nH]c1=O [Example 9-6, 7-chloro-4-hydroxy-3-[4-methyl-4′-(trifluoromethyl)biphenyl-3-yl]quinolin-2(1H)-one] | 1090 | 18900
11 | COCC1CCC2(CC1)NC(=O)C(c1cc(-c3ccc(Cl)cc3)ccc1Cl)=C2O (stereo not shown) [Example 1-54, 3-(4,4′-dichlorobiphenyl-3-yl)-4-hydroxy-8-(methoxymethyl)-1-azaspiro[4.5]dec-3-en-2-one] | 220 | 1100
12 | Cc1ccc(-c2ccc(Cl)cc2)cc1C1=C(O)CC(C)(C)NC1=O [Example 9-1, 3-(4′-chloro-4-methylbiphenyl-3-yl)-4-hydroxy-6,6-dimethyl-5,6-dihydropyridin-2(1H)-one] | 319 | > 20000
13 | Cc1ccc(-c2ccc(F)c(F)c2)cc1C1=C(O)C2(CCC3(CCCO3)CC2)NC1=O (stereo not shown) [Example 1-35, 11-(3′,4′-difluoro-4-methylbiphenyl-3-yl)-12-hydroxy-1-oxa-9-azadispiro[4.2.4.2]tetradec-11-en-10-one] | 298 | 4000
14 | Cc1ccc(-c2ccc(Cl)cc2)cc1C1=C(O)C2(CCOC(C)C2)NC1=O (stereo not shown) [Example 1-3, 3-(4′-chloro-4-methylbiphenyl-3-yl)-4-hydroxy-7-methyl-8-oxa-1-azaspiro[4.5]dec-3-en-2-one] | 450 | 5400
15 | Cc1ccc(-c2ccc(Cl)cc2)cc1C1=C(O)C2(CCC(OCC(F)(F)F)CC2)OC1=O (stereo not shown) [Example 2-33, 3-(4′-chloro-4-methylbiphenyl-3-yl)-4-hydroxy-8-(2,2,2-trifluoroethoxy)-1-oxaspiro[4.5]dec-3-en-2-one] | 229 | 3590
16 | Cc1cc(C)c(-c2ccc(Cl)cc2)c(C)c1C1=C(O)C2(CCCCC2)CC1=O [Example 6-9, 3-(4′-chloro-2,4,6-trimethylbiphenyl-3-yl)-4-hydroxyspiro[4.5]dec-3-en-2-one] | > 20000 | 387
17 | Cc1ccc(-c2ccc(Cl)cc2)cc1C1=C(O)C2(CCCCC2)NC1=O [Example 1-77, 3-(4′-chloro-4-methylbiphenyl-3-yl)-4-hydroxy-1-azaspiro[4.5]dec-3-en-2-one] | 327 | 860
18 | CO[C@H]1CC[C@]2(CC1)NC(=O)C(c1c(C)ccc(-c3ccc(F)cc3)c1C)=C2O [Example 1-45, (5s,8s)-3-(4′-fluoro-2,4-dimethylbiphenyl-3-yl)-4-hydroxy-8-methoxy-1-azaspiro[4.5]dec-3-en-2-one] | 776 | 3610
19 | COC1CCCC2(C1)OC(=O)C(c1c(C)cc(C)c(-c3ccc(Cl)cc3)c1C)=C2O (stereo not shown) [Example 2-12, 3-(4′-chloro-2,4,6-trimethylbiphenyl-3-yl)-4-hydroxy-7-methoxy-1-oxaspiro[4.5]dec-3-en-2-one] | 4170 | 1150
20 | Cc1ccc(-c2ccc(F)c(F)c2)cc1C1=C(O)C2(CCOCC2)NC1=O [Example 1-37, 3-(3′,4′-difluoro-4-methylbiphenyl-3-yl)-4-hydroxy-8-oxa-1-azaspiro[4.5]dec-3-en-2-one] | 810 | > 20000
21 | Cc1ccc(-c2ccc(Cl)cc2)cc1C1=C(O)C(C)(C2CC2)NC1=O (stereo not shown) [Example 1-86, 3-(4′-chloro-4-methylbiphenyl-3-yl)-5-cyclopropyl-4-hydroxy-5-methyl-1,5-dihydro-2H-pyrrol-2-one] | 541 | 3300
22 | Cc1ccc(-c2ccc(Cl)cc2Cl)cc1C1=C(O)C2(CCCCC2)CC1=O [Example 6-2, 3-(2′,4′-dichloro-4-methylbiphenyl-3-yl)-4-hydroxyspiro[4.5]dec-3-en-2-one] | 337 | 1690
23 | Cc1cc(C)c(-c2ccc(Cl)cc2)cc1C1=C(O)C2(CCCCC2)CC1=O [Example 6-8, 3-(4′-chloro-4,6-dimethylbiphenyl-3-yl)-4-hydroxyspiro[4.5]dec-3-en-2-one] | 1380 | 127
24 | Cc1ccc(-c2ccc(C)c(C3=C(O)C4(CCCOC4)NC3=O)c2)cc1 (stereo not shown) [Example 1-14, 3-(4,4′-dimethylbiphenyl-3-yl)-4-hydroxy-7-oxa-1-azaspiro[4.5]dec-3-en-2-one] | 990 | > 20000
25 | CCC1CCC2(CC1)CC(=O)C(c1cc(-c3ccc(Cl)cc3)ccc1C)=C2O (stereo not shown) [Example 6-5, 3-(4′-chloro-4-methylbiphenyl-3-yl)-8-ethyl-4-hydroxyspiro[4.5]dec-3-en-2-one] | 754 | 565
26 | CCOC1CCC2(CC1)NC(=O)C(c1cc(-c3ccc(Cl)cc3)ccc1C)=C2O (stereo not shown) [Example 1-28, 3-(4′-chloro-4-methylbiphenyl-3-yl)-8-ethoxy-4-hydroxy-1-azaspiro[4.5]dec-3-en-2-one] | 443 | 192

Source: US20120129833A1, “CYCLIC KETOENOLS FOR THERAPY” (BAYER PHARMA AKTIENGESELLSCHAFT, priority 2010, published 2012)
